Measurements published in patent US6531453B1, “NKT cell activators containing α-glycosylceramides” (Kirin Beera Kabushiki Kaisha, priority 1997, dated 2003).

Legend:
Vα24+ NKT cells = experiment: Stimulation of Vα24+ NKT cell proliferation, autologous mixed leukocyte reaction with treated antigen-presenting cells; assay type: cell-based, human; details: antigen-presenting cells treated with 100 ng/ml, FIG. 9
Experimental: Peripheral blood mononuclear cells of a normal human were cultured for 4 days in an AIM medium supplemented with 10% FCS with the addition of GM-CSF (400 U/ml), IL-4 (200 U/ml) and KRN 7000 (100 ng/ml) to prepare antigen-presenting cells.
An autologous mixed leukocyte reaction (MLR) was performed using these antigen-presenting cells as stimulator cells and autologous peripheral blood mononuclear cells as responder cells. After incubation for 10 days, IL-2 (5 U/ml) was added, incubation was continued for another 4 days, and the cells were harvested. Next, CD4, CD8 double negative cells were recovered from these harvested cells and subjected to the phenotype analysis. The phenotypic analysis was expressed by fluorescence intensity of labeled antibodies against cells having various phenotypes.
The cells were cultured using IL-2 (5 U/ml) to stimulate the proliferation of Vα24^+ NKT cells, which were used as responder cells in the following autologous mixed leukocyte reaction. Autologous peripheral blood mononuclear cells were cultured for 4 days with the addition of GM-CSF +IL-4 and 100 ng/ml of KRN 7000, AGL-583 (β-galactosylceramide, β-GalCer) or 0.1% DMSO (vehicle) to prepare antigen-presenting cells. An autologous mixed leukocyte reaction was carried out using these antigen-presenting cells as stimulator cells. […]

Vα14+ NKT cells = experiment: Stimulation of spleen NKT cell proliferation in C57BL/6 mice (3-color FACS analysis); assay type: in vivo, mouse
Experimental: A vehicle (physiological saline solution containing 0.5% Polysolvate 20) or 1, 10 or 100 ng/kg of KRN 7000 was intravenously administered to C57BL/6 mice (Japan SLC, Inc.), and the spleen of individual mice was taken out after 24 hours to prepare spleen cells by conventional methods. These spleen cells were incubated in a plastic dish for 30 minutes to prepare nonadherent cells. By removing B cells in this nonadherent cells, a lymphocyte fraction was prepared. T cells, NK cells, NKT cells and Vα14^+ NKT cells in this fraction were analyzed by the 3-color FACS analysis using the FITC-labeled anti-TCR αβ monoclonal antibody (Pharmingen), cychrome-labeled anti-NK1.1 monoclonal antibody (Pharmingen) and PE-labeled anti-Vα14 monoclonal antibody (FIG. 2). The anti-Vα14 monoclonal antibody was obtained by implanting anti-Vα14 monoclonal antibody producing hybridomas (CMS-1; available from Masaru Taniguchi et al, School of Medicine, Chiba University) in nude mice and recovering ascites from the animals to purify the antibody. In FIGS. 2A and 2B, the numbers of NK1.1 cells, TCRαβ cells and […] in the lymphocyte fraction were expressed as fluorescence intensity of the labeled antibodies against these cells.

NOD/ShiJic (NOD) mice = experiment: Suppression of spontaneous diabetes onset in NOD mice; assay type: in vivo, mouse; details: 100 μg/kg i.p. twice a week from 7 weeks of age; control 80%, FIG. 7
Experimental: Ten animals per group of NOD/ShiJic (NOD) mice (6-week-old, females) (Japan Clea, Inc.) were used for the following experiment. […] The animals were divided into two groups, i.e., one group to which 100 μg/kg of KRN 7000 were intraperitoneally administered twice a week starting from 7-weeks of age, and an untreated control group. The presence and absence of diabetic symptoms was examined every week. The blood glucose level was measured using a glucometer (Miles Sankyo), and mice showing the value of more than 200 mg/dL twice consecutively were diagnosed to be diabetic.

[1] = tested on: Vα14+ NKT-deficient (Jα281KO) mice; experiment: Induction of abortion in Vα14+ NKT-deficient (Jα281KO) mice; assay type: in vivo, mouse; details: same amount, same manner, PBS group 5.0%
Experimental: C57BL/6 mice (Japan SLC) were used for the following experiment. The day when a vaginal plug was observed was defined as day 0. Pregnant mice were divided into 2 groups (6 mice per group), i.e., one group to which 150 μg/kg of KRN 7000 were intravenously administered on days 7, 8 and 9, and another to which PBS (phosphate-buffered saline) was administered in the same way. On day 12, the uterus was removed to observe the state of the embryo.
When the same amount of KRN 7000 was administered to Vα14^+ NKT-deficient (Jα281KO) mice (Kawano, T. et al., Science, 278, 1626-1629 (1997)) in the same manner, the abortion rate was 5.3%, which was equivalent to that for the PBS-administered group (5.0%). The Vα14^+ NKT-deficient mice are available from Masaru Taniguchi, School of Medicine, Chiba University.

[2] = tested on: 4% DSS-induced mouse colitis (CDF1 mice); experiment: Suppression of 4% DSS-induced mouse colitis; assay type: in vivo; details: KRN 7000 100 μg/kg i.p. days 1, 5, 9, IL-12 1 μg/mouse i.p. days 1, 3, 5, 7, 9
Experimental: Ten animals per group of CDF1 mice (6 weeks of age, females) (Japan SLC Inc.) were used for the following experiment. Day 0 was defined as the day when a 4% DSS solution (4% (w/v) dextran sodium sulfate (DSS) dissolved in water) was first provided as drinking water. The animals were divided into 3 groups, i.e., a group to which 100 μg/kg of KRN 7000 were intraperitoneally administered on days 1, 5, and 9, a group to which 1 μg/mouse of IL-12 was intraperitoneally administered on days 1, 3, 5, 7 and 9, and an untreated (control) group. Body weight was measured and survival or death of the animals were observed daily. Changes in body weight and survival rate are shown in FIG. 5A and 5B, respectively.

MRL lpr/lpr mice = experiment: Suppression of lymph node swelling in MRL lpr/lpr mice; assay type: in vivo, mouse; details: 100 μg/kg i.p. twice a week from the age of 11 weeks
Experimental: Ten animals per group of female MRL lpr/lpr mice (Sakamoto, A. Clin. Immunol., 28, 1558 (1966)), were used for the following experiment. During the observation of 21 MRL mice purchased at the age of 6 weeks, swelling of the axillary lymph nodes was recognized in one mouse at the age of 10 weeks. Accordingly, the other 20 mice were randomly divided into 2 groups. A vehicle (a physiological saline solution containing 0.025% Polysolvate 20) or KRN 7000 (100 μg/kg) was intraperitoneally administered twice a week (on Tuesday and Friday) to the abovementioned 2 groups of animals starting from the age of 11 weeks. Axillary and inguinal lymph nodes were examined twice a week to observe the progress of lymph node swelling with time. The lymph nodes were scored into 4 grades, i.e., −(0), +(1), ++(2) and +++(3) as a function of size. The total scores of both right and left sides of the axillary lymph node (A) or inguinal lymph node (B) were expressed as lymph node swelling indexes as shown in FIG. 3.

[3] = spleen, i.v., 24 hours, FIG. 2C

**Q.** With `CCCCCCCCCCCCCCCCCCCCCCCCCC(=O)N[C@@H](CO[C@H]1O[C@H](CO)[C@H](O)[C@H](O)[C@H]1O)[C@H](O)[C@H](O)CCCCCCCCCCCCCC` [KRN 7000, (2S,3S,4R)-1-(α-D-galactopyranosyloxy)-2-hexacosanoylamino-3,4-octadecanediol] as the molecule, how does the “effect of treated antigen presenting cells on Vα24+ NKT cell proliferation ([3H]thymidine uptake)” value (Vα24+ NKT cells) read?
**A.** marked stimulative effect

**Q.** And the “rate of NK1.1+ TCRαβ cells in the spleen lymphocyte fraction vs vehicle” value (Vα14+ NKT cells; 100 ng/kg i.v., 24 hours, FIG. 2A)?
**A.** marked increase

**Q.** And the “rate of Vβ14+ cells in NK1.1+ TCRβα+ cells vs vehicle” value (Vα14+ NKT cells; 100 ng/kg i.v., 24 hours, FIG. 2B)?
**A.** increase

**Q.** What about the “numbers of NK cells in the spleen lymphocyte fractions” value (Vα14+ NKT cells; 10 or 100 ng/kg i.v., 24 hours, FIG. 2C) of the same molecule?
**A.** equal to those from the vehicle-administered mice

**Q.** And the “increase in numbers of Vα14+ NKT cells in the spleen lymphocyte fraction vs vehicle” value (Vα14+ NKT cells; i.v., 24 hours, FIG. 2C)?
**A.** more than four times

**Q.** And the “increase in numbers of Vα14− NKT cells in the spleen lymphocyte fraction vs vehicle” value (Vα14+ NKT cells; i.v., 24 hours, data not shown)?
**A.** more than three times

**Q.** What about the “numbers of Vα14+ cells in the liver” value (Vα14+ NKT cells; liver, data not shown) of the same molecule?
**A.** marked increase

**Q.** What about the “numbers of Vα14− NKT cells in the liver” value (Vα14+ NKT cells; liver, data not shown) of the same molecule?
**A.** marked increase

**Q.** And the “increase in the numbers of T cells vs vehicle-administered mice” value (Vα14+ NKT cells; [3])?
**A.** about 2 fold

**Q.** And the “increase in the numbers of lymphocyte fractions vs vehicle-administered mice” value (Vα14+ NKT cells; [3])?
**A.** about 2 fold

**Q.** And the “mice that became diabetic at the age of 35 weeks” value (NOD/ShiJic (NOD) mice)?
**A.** none

**Q.** What about the abortion rate [1] of the same molecule?
**A.** 5.3%

**Q.** What about the “time of weight loss as compared with the control group” value ([2]; FIG. 5A) of the same molecule?
**A.** at a later period

**Q.** What about the “survival period as compared with the control group” value ([2]; FIG. 5B) of the same molecule?
**A.** significantly longer

**Q.** And the “swelling in the axillary lymph nodes with aging” value (MRL lpr/lpr mice; FIG. 3A)?
**A.** clearly suppressed

**Q.** What about the “swelling in the inguinal lymph nodes with aging” value (MRL lpr/lpr mice; FIG. 3B) of the same molecule?
**A.** clearly suppressed
